How the values were obtained:
ASC+MDA-MB-231 spheroid [1] = assay: Real Time-Glo MT cell viability assay, 3D multicellular tumor spheroid
[2] = tested on: three types of 3D spheroids versus 2D monolayer; assay: 3D versus 2D comparison of cell viability; assay type: cell-based, human; conditions: doxorubicin
FIB+MDA-MB-231 spheroid [3] = assay: Real Time-Glo MT cell viability assay, 3D multicellular tumor spheroid; assay type: cell-based; conditions: Homo sapiens, 48 h; 10 μM doxorubicin for two days
FIB+MDA-MB-231 spheroid [4] = assay: Real Time-Glo Annexin V apoptosis assay, 3D spheroid; assay type: cell-based, human; conditions: 10 μM doxorubicin, 48 hours
Protocol: (§1) Apoptotic and necrotic cells in spheroids were assayed using Real Time-Glo™ Annexin V apoptosis and necrosis assays. Real Time-Glo™ Annexin V apoptosis and necrosis assays were performed in combination with a cell viability assay. […] Thereafter, 2X apoptosis and necrosis formulations of the same volume (100 μL) were added to each well according to standard protocol proposed in manufacturer's instructions.
(§2) To investigate drug sensitivity depending on the viability against doxorubicin in the spheroids, Real Time-Glo™ Annexin V apoptosis and necrosis assays were performed. If apoptosis is induced by a drug response, a cell membrane is reversed to expose phosphatidyl-serine (PS), and an apoptotic cell can be analyzed by binding PS with Annexin V detected by a luminescence signal. A necrotic cell is detected by binding DNA with PI (green) that produces a fluorescence signal when the necrotic cell invades into a cell and a cell membrane loses integrity.

BMSC+MDA-MB-231 spheroid [5] = assay: as above; assay type: cell-based, human; conditions: 10 μM doxorubicin, 48 hours
Protocol: as §1, §2

ASC+MDA-MB-231 spheroid [6] = assay: as above; assay type: cell-based, human; conditions: 10 μM doxorubicin, 48 hours
Protocol: as §1, §2

BMSC+MDA-MB-231 spheroid [7] = assay: Real Time-Glo MT cell viability assay, 3D multicellular tumor spheroid; assay type: cell-based; conditions: Homo sapiens, 48 h; 10 μM doxorubicin for two days
[8] = tested on: 3D multicellular tumor spheroids (ASC, BMSC or FIB + MDA-MB-231); assay: Necrosis (PI) assay, three types of 3D spheroids; assay type: cell-based, human; conditions: 10 μM doxorubicin, 48 hours
Protocol: as §1, §2

COc1cccc2c1C(=O)c1c(O)c3c(c(O)c1C2=O)C[C@@](O)(C(=O)CO)C[C@@H]3O[C@H]1C[C@H](N)[C@H](O)[C@H](C)O1 [doxorubicin]
cell viability (ASC+MDA-MB-231 spheroid [1]; 10 μM doxorubicin for two days): 56.67%
viability, compared with other co-culture ratios (ASC+MDA-MB-231 spheroid [1]; ASC:MDA-MB-231 co-culture ratio 5:5, 10 μM doxorubicin, 48 hours): highest
drug sensitivity of 3D spheroids compared with 2D monolayer [2]: lower drug sensitivity
viability at 10 µM (FIB+MDA-MB-231 spheroid [3]): 43%
apoptosis (Annexin V) fold change (FIB+MDA-MB-231 spheroid [4]): about 13 times
apoptosis (Annexin V) fold change (BMSC+MDA-MB-231 spheroid [5]): 10 fold
apoptosis (Annexin V) fold change (ASC+MDA-MB-231 spheroid [6]): 9 fold
viability at 10 µM (BMSC+MDA-MB-231 spheroid [7]): 48.3%
necrosis (PI), difference between spheroid types [8]: No significant difference

— patent publication US20210207082A1, “SPHERICAL 3D TUMOR SPHEROID” (KOREA INSTITUTE OF SCIENCE AND TECHNOLOGY, priority 2019, published 2021)
